Measurements: patent publication US12318381B2, “Treatment for non-alcoholic fatty liver disease” (1GLOBE BIOMEDICAL CO., LTD., priority 2018, dated 2025)

Tested on: human HepG2 liver cells
Assay: Intracellular fat content in palmitoleic acid-treated HepG2 cells (AdipoRed/Hoechst 33258 double staining, fluorometry)
Assay type: cell-based
Settings: for palmitoleic acid-induced increase of intracellular triglyceride content: HepG2, 0.8 mM palmitoleic acid in EMEM; for inhibitory effect on fat accumulation as compared to Compound 13-3: HepG2, 0.8 mM palmitoleic acid
Protocol: The effects on triglyceride accumulation from Compound 13-3-1, Compound 13-3-2, Compound 13-3-3, Compound 13-3-5, Compound 13-3-6, Compound 13-3-7, Compound 18-2, Compound 13-3-10 and Compound 13-3-11, as exemplary compounds of the invention, were tested. Human HepG2 liver cells were incubated with 0.8 mM palmitoleic acid in EMEM medium for 24 hours in the presence of 0.1 μM compounds of the invention or control vehicle, DMSO. Subsequently, the cells were washed with PBS and the intracellular fat content was measured by AdipoRed/Hoechst 33258 double staining, which was assessed by flourometry.
And the effects of Compound 001, Compound 004, Compound 006, Compound 013, Compound 132, Compound 133 and Compound 134, as further exemplary compounds of the invention, were also tested. Human HepG2 liver cells were incubated with 0.8 mM palmitoleic acid in EMEM medium for 48 hours in the presence of 0.1 μM compounds of the invention or control vehicle, DMSO. Subsequently, the cells were washed with PBS and the intracellular fat content was measured by AdipoRed/Hoechst 33258 double staining, which was assessed by flourometry.

[1] = 48 hours, 0.1 μM compound vs DMSO (FIG. 1C)
[2] = 24 hours, 0.1 μM compound vs DMSO (FIG. 1B)

Row | Structure (SMILES) | palmitoleic acid-induced increase of intracellular triglyceride content [1] | inhibitory effect on fat accumulation as compared to Compound 13-3 (48 hours, 0.1 μM (FIG. 1C)) | palmitoleic acid-induced increase of intracellular triglyceride content [2] | inhibitory effect on fat accumulation as compared to Compound 13-3 (24 hours, 0.1 μM (FIG. 1B))
1 | [2H]C([2H])(NC(=O)c1c(C)[nH]c(/C=C2\C(=O)Nc3ccc(-c4csc(-c5ccccc5)n4)cc32)c1C)C([2H])([2H])N(CC)CC [Compound 001] | markedly suppressed | comparable or greater | – | –
2 | [2H]C([2H])([2H])C([2H])([2H])N(C([2H])([2H])C([2H])([2H])[2H])C([2H])([2H])C([2H])([2H])NC(=O)c1c(C)[nH]c(/C=C2\C(=O)Nc3ccc(-c4csc(-c5ccccc5)n4)cc32)c1C [Compound 004] | markedly suppressed | comparable or greater | – | –
3 | [2H]c1c([2H])c([2H])c(-c2nc(-c3ccc4c(c3)/C(=C/c3[nH]c(C)c(C(=O)NC([2H])([2H])C([2H])([2H])N(C([2H])([2H])C([2H])([2H])[2H])C([2H])([2H])C([2H])([2H])[2H])c3C)C(=O)N4)cs2)c([2H])c1[2H] [Compound 006] | markedly suppressed | comparable or greater | – | –
4 | CCN(CC)CCNC(=O)c1c(C)[nH]c(/C=C2\C(=O)Nc3ccc(-c4csc(Nc5ccccc5)n4)cc32)c1C [Compound 13-3-1] | – | – | markedly suppressed | comparable or greater
5 | CCN(CC)CCNC(=O)c1c(C)[nH]c(/C=C2\C(=O)Nc3ccc(-c4csc(N5CCCCC5)n4)cc32)c1C [Compound 13-3-2] | – | – | markedly suppressed | comparable or greater
6 | CCN(CC)CCNC(=O)c1c(C)[nH]c(/C=C2\C(=O)Nc3ccc(C(=O)Nc4csc([N+](=O)[O-])n4)cc32)c1C [Compound 13-3-3] | – | – | markedly suppressed | comparable or greater
7 | CCN(CC)CCNC(=O)c1c(C)[nH]c(/C=C2\C(=O)Nc3cccc(-c4cnc(OC)nc4)c32)c1C [Compound 13-3-5] | – | – | markedly suppressed | comparable or greater
8 | CCN(CC)CCC(=O)N1CCN(c2ccc(/C=C3\C(=O)Nc4ccc(-c5csc(-c6ccccc6)n5)cc43)cc2)CC1 [Compound 13-3-6] | – | – | markedly suppressed | comparable or greater
9 | CCN(CC)CCNC(=O)CCc1c(C)[nH]c(/C=C2\C(=O)Nc3ccc(-c4csc(-c5ccccc5)n4)cc32)c1C [Compound 13-3-7] | – | – | markedly suppressed | comparable or greater
10 | CCN(CC)CCNC(=O)c1c(C)[nH]c(/C=C2\C(=O)Nc3cnc(-c4csc(-c5ccccc5)n4)cc32)c1C [Compound 13-3-10] | – | – | markedly suppressed | comparable or greater
11 | CCN(CC)CCNC(=O)c1c(C)[nH]c(/C=C2\C(=O)Nc3ccc(C4CCN(c5ccccc5)CC4)cc32)c1C [Compound 13-3-11] | – | – | markedly suppressed | comparable or greater
12 | [2H]c1c([2H])c([2H])c(-c2nc(-c3ccc4c(c3)/C(=C/c3[nH]c(C)c(C(=O)NC([2H])([2H])C([2H])([2H])N(CC)CC)c3C)C(=O)N4)cs2)c([2H])c1[2H] [Compound 013] | markedly suppressed | comparable or greater | – | –
13 | Cc1[nH]c(/C=C2\C(=O)Nc3ccc(-c4csc(-c5cccnc5)n4)cc32)c(C)c1C(=O)N1CCN(C)CC1 [Compound 18-2] | – | – | markedly suppressed | comparable or greater
14 | [2H]c1c([2H])c([2H])c(-c2nc(-c3ccc4c(c3)/C(=C/c3[nH]c(C)c(C(=O)NCCN(CC)CC)c3C)C(=O)N4)cs2)c([2H])c1[2H] [Compound 132] | markedly suppressed | comparable or greater | – | –
15 | [2H]c1c([2H])c([2H])c(-c2nc(-c3ccc4c(c3)/C(=C/c3[nH]c(C)c(C(=O)NCCN(C([2H])([2H])C([2H])([2H])[2H])C([2H])([2H])C([2H])([2H])[2H])c3C)C(=O)N4)cs2)c([2H])c1[2H] [Compound 133] | markedly suppressed | comparable or greater | – | –
16 | [2H]C([2H])([2H])C([2H])([2H])N(CCNC(=O)c1c(C)[nH]c(/C=C2\C(=O)Nc3ccc(-c4csc(-c5ccccc5)n4)cc32)c1C)C([2H])([2H])C([2H])([2H])[2H] [Compound 134] | markedly suppressed | comparable or greater | – | –
